Source: ChEMBL document CHEMBL5678809, “Preclinical characterization of GLPG0634, a selective inhibitor of JAK1, for the treatment of inflammatory diseases” (J Immunol, 2013)
The source made the active and inactive calls. No cut-off for these calls is given here.

What was measured:
[1] = molecular target: Mast/stem cell growth factor receptor Kit (Homo sapiens, UniProt P10721); experiment: Inhibition of cKIT (unknown origin)
Mus musculus [2] = experiment: Antiarthritic activity against collagen-induced arthritis DBA/1J mouse model assessed as MDC level in serum at 50 mg/kg, po measured for 4 hrs by luminex analysis (reference value: 463.8 +/- 32.7 ng/ml); type: functional
[3] = molecular target: Mitogen-activated protein kinase 12 (Homo sapiens, UniProt P53778); experiment: Inhibition of MAPK12 (unknown origin)
Homo sapiens = species on record: Homo sapiens; experiment: Inhibition of PhK2 (unknown origin) at 1 uM relative to control
[4] = molecular target: Serine/threonine-protein kinase DCLK2 (Homo sapiens) (UniProt Q8N568); experiment: Inhibition of DCAMKL2 (unknown origin) at 1 uM relative to control
[5] = molecular target: Serine/threonine-protein kinase ULK2 (Homo sapiens) (UniProt Q8IYT8); experiment: Inhibition of ULK2 (unknown origin) at 1 uM relative to control
[6] = molecular target: Homeodomain-interacting protein kinase 2 (Homo sapiens, UniProt Q9H2X6); experiment: Inhibition of HIPK2 (unknown origin)
[7] = molecular target: Serine/threonine-protein kinase PAK 2 (Homo sapiens) (UniProt Q13177); experiment: Inhibition of PAK2 (unknown origin) at 1 uM relative to control
Mus musculus [8] = experiment: Antiarthritic activity against collagen-induced arthritis DBA/1J mouse model assessed as KC/GRO level in serum at 50 mg/kg, po measured for 4 hrs by luminex analysis (reference value: 73.6 +/- 18.6 ng/ml); type: functional
[9] = molecular target: Proto-oncogene tyrosine-protein kinase Src (Homo sapiens) (UniProt P12931); experiment: Inhibition of Src (unknown origin) (1 to 530 residues) at 1 uM relative to control
Rattus norvegicus [10] = experiment: Antiarthritic activity against collagen-induced arthritis Dark Agouti rat model assessed as reduction in inflammatory infiltration at 1 mg/kg, po administered 3 times a week and measured on day 7; type: functional, organism-based; details: time 7.0 day
[11] = molecular target: Protein kinase C beta type (Homo sapiens) (UniProt P05771); experiment: Inhibition of PKCb (unknown origin) at 1 uM relative to control
[12] = molecular target: Ribosomal protein S6 kinase alpha-4 (Homo sapiens) (UniProt O75676); experiment: Inhibition of MSK2 (unknown origin) at 1 uM relative to control
Mus musculus [13] = experiment: Antiarthritic activity against collagen-induced arthritis DBA/1J mouse model assessed as reduction in MX1 level in whole blood at 50 mg/kg, po measured for 2 weeks by luminex analysis; type: functional, organism-based
[14] = molecular target: Receptor-type tyrosine-protein kinase FLT3 (Homo sapiens) (UniProt P36888); experiment: Inhibition of Flt3 (unknown origin) at 1 uM relative to control
Rattus norvegicus [15] = experiment: Antiarthritic activity against collagen-induced arthritis Dark Agouti rat model assessed as reduction in clinical score at 1 to 10 mg/kg, po measured after day 5; type: functional, organism-based; details: dose 1-10 mg/kg, time 5.0 day
[16] = molecular target: Tyrosine-protein kinase BTK (Homo sapiens, UniProt Q06187); experiment: Inhibition of BTK (unknown origin)
[17] = Tmax in CD-1 mouse at 5 mg/kg, po measured upto 24 hrs by LC-MS analysis; type: ADME, organism-based; details: in vivo
[18] = molecular target: Proto-oncogene tyrosine-protein kinase ROS (Homo sapiens) (UniProt P08922); experiment: Inhibition of Ros (unknown origin) at 1 uM relative to control
[19] = molecular target: MAP kinase-interacting serine/threonine-protein kinase 2 (Homo sapiens, UniProt Q9HBH9); experiment: Inhibition of MNK2 (unknown origin)
[20] = molecular target: Vascular endothelial growth factor receptor 1 (Homo sapiens, UniProt P17948); experiment: Inhibition of Flt1 (unknown origin) at 1 uM relative to control
[21] = molecular target: Ephrin type-B receptor 4 (Homo sapiens) (UniProt P54760); experiment: Inhibition of EphB4 (unknown origin) at 1 uM relative to control
[22] = molecular target: Serine/threonine-protein kinase pim-1 (Homo sapiens) (UniProt P11309); experiment: Inhibition of Pim-1 (unknown origin) at 1 uM relative to control
[23] = molecular target: Tyrosine-protein kinase receptor UFO (Homo sapiens) (UniProt P30530); experiment: Inhibition of Axl (unknown origin) at 1 uM relative to control
[24] = Clearance in CD-1 mouse at 1 mg/kg, iv measured upto 8 hrs by LC-MS analysis; type: ADME, organism-based; details: in vivo
[25] = molecular target: Tyrosine-protein kinase Lyn (Homo sapiens, UniProt P07948); experiment: Inhibition of LYNA (unknown origin)
[26] = molecular target: Homeodomain-interacting protein kinase 1 (Homo sapiens) (UniProt Q86Z02); experiment: Inhibition of HIPK1 (unknown origin) at 1 uM relative to control
[27] = Half life in CD-1 mouse at 1 mg/kg, iv measured upto 8 hrs by LC-MS analysis; type: ADME, organism-based; details: in vivo
[28] = Tmax in Sprague-Dawley rat at 5 mg/kg, po measured upto 24 hrs by LC-MS analysis; type: ADME, organism-based; details: in vivo
[29] = molecular target: Activated CDC42 kinase 1 (Homo sapiens) (UniProt Q07912); experiment: Inhibition of ACK1 (unknown origin) at 1 uM relative to control
[30] = molecular target: SRSF protein kinase 2 (Homo sapiens) (UniProt P78362); experiment: Inhibition of SRPK2 (unknown origin) at 1 uM relative to control
[31] = molecular target: Serine/threonine-protein kinase 33 (Homo sapiens) (UniProt Q9BYT3); experiment: Inhibition of STK33 (unknown origin) at 1 uM relative to control
[32] = molecular target: Mitogen-activated protein kinase 1 (Homo sapiens) (UniProt P28482); experiment: Inhibition of MAPK1 (unknown origin) at 1 uM relative to control
[33] = molecular target: Tyrosine-protein kinase FRK (Homo sapiens) (UniProt P42685); experiment: Inhibition of PTK5 (unknown origin) at 1 uM relative to control
[34] = molecular target: Angiopoietin-1 receptor (Homo sapiens) (UniProt Q02763); experiment: Inhibition of Tie2 (unknown origin) at 1 uM relative to control
[35] = molecular target: Protein kinase C delta type (Homo sapiens) (UniProt Q05655); experiment: Inhibition of PKCd (unknown origin) at 1 uM relative to control
[36] = Half life in Sprague-Dawley rat at 1 mg/kg, iv measured upto 8 hrs by LC-MS analysis; type: ADME, organism-based; details: in vivo
[37] = molecular target: Mitogen-activated protein kinase kinase kinase kinase 4 (Homo sapiens, UniProt O95819); experiment: Inhibition of MAP4K4 (unknown origin)
[38] = molecular target: Serine/threonine-protein kinase Chk2 (Homo sapiens) (UniProt O96017); experiment: Inhibition of CHK2 (unknown origin) at 1 uM relative to control
Mus musculus [39] = experiment: Antiarthritic activity against collagen-induced arthritis DBA/1J mouse model assessed as SCF level in serum at 50 mg/kg, po measured for 4 hrs by luminex analysis (reference value: 672.4 +/- 242.2 ng/ml); type: functional
[40] = molecular target: Serine/threonine-protein kinase WNK2 (Homo sapiens) (UniProt Q9Y3S1); experiment: Inhibition of WNK2 (unknown origin) at 1 uM relative to control

Receptor-type tyrosine-protein kinase FLT3 (Homo sapiens), sequence (P36888 whole entry): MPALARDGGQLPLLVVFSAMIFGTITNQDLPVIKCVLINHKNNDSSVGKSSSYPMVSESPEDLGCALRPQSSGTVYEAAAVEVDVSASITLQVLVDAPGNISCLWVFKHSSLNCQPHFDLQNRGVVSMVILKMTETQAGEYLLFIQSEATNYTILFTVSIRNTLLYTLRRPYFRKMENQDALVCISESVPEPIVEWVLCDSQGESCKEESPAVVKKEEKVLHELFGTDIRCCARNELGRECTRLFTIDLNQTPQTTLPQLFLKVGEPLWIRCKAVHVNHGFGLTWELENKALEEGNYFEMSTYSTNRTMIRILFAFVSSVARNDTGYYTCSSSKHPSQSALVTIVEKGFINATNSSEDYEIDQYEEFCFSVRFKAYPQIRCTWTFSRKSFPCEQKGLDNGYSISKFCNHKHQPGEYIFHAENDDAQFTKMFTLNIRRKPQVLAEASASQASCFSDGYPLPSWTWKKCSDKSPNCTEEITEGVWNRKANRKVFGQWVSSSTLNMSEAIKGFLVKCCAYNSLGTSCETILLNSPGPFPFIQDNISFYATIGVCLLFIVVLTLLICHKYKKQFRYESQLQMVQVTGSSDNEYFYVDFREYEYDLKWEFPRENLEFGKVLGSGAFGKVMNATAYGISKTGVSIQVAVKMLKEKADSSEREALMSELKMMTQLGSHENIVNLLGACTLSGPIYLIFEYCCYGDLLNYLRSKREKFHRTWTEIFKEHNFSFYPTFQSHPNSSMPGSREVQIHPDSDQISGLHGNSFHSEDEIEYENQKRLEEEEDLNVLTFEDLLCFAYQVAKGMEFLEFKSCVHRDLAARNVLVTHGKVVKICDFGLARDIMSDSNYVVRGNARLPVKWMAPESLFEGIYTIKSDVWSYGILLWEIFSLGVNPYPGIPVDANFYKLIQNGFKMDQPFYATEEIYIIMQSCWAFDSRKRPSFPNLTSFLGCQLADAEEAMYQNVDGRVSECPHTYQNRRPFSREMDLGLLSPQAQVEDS
Protein kinase C beta type (Homo sapiens), sequence (P05771 2-671 limits assumed): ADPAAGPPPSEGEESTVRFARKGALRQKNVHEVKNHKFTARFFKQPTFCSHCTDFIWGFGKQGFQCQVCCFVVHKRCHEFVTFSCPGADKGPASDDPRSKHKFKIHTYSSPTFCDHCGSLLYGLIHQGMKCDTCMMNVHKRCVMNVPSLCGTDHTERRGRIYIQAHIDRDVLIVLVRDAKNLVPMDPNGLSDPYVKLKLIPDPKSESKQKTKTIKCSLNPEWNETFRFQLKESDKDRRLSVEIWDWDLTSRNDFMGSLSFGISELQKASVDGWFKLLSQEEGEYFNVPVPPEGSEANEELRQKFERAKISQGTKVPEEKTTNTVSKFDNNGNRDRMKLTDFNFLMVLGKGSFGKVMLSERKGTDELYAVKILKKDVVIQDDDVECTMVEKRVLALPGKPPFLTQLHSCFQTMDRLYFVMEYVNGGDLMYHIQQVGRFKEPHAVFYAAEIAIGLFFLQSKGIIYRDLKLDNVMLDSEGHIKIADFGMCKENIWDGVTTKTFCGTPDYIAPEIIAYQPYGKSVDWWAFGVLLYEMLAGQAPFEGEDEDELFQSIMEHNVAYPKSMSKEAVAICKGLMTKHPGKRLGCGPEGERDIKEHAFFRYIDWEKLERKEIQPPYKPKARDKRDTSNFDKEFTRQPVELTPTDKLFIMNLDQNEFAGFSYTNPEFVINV
Activated CDC42 kinase 1 (Homo sapiens), sequence (Q07912 whole entry, looked up): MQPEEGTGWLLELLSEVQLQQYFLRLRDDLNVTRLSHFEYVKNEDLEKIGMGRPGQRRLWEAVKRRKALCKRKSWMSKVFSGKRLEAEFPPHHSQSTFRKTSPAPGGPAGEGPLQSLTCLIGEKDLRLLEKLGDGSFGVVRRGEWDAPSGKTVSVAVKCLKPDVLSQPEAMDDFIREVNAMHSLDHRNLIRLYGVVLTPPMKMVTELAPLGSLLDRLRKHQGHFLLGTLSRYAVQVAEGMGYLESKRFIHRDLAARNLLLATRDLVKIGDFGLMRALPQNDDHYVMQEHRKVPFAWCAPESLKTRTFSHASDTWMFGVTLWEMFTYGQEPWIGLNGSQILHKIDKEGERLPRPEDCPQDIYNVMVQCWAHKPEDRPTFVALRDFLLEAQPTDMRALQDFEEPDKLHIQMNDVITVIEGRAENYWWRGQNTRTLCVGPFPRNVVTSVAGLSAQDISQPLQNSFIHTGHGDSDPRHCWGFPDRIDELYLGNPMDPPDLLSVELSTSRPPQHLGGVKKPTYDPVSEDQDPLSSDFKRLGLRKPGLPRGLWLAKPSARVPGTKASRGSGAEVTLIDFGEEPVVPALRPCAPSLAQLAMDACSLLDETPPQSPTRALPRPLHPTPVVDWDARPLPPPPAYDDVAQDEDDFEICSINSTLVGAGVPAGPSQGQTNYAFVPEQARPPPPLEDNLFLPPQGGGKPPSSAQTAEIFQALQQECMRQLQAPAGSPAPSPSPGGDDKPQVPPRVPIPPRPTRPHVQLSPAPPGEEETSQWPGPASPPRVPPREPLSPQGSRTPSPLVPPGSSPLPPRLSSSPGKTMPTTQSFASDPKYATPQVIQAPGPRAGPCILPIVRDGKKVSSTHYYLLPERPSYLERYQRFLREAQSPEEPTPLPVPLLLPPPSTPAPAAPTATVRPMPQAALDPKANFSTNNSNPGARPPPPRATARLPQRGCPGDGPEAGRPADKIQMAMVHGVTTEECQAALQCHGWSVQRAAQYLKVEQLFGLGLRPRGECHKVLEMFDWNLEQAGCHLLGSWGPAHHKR
Ribosomal protein S6 kinase alpha-4 (Homo sapiens), sequence (O75676 whole entry, looked up): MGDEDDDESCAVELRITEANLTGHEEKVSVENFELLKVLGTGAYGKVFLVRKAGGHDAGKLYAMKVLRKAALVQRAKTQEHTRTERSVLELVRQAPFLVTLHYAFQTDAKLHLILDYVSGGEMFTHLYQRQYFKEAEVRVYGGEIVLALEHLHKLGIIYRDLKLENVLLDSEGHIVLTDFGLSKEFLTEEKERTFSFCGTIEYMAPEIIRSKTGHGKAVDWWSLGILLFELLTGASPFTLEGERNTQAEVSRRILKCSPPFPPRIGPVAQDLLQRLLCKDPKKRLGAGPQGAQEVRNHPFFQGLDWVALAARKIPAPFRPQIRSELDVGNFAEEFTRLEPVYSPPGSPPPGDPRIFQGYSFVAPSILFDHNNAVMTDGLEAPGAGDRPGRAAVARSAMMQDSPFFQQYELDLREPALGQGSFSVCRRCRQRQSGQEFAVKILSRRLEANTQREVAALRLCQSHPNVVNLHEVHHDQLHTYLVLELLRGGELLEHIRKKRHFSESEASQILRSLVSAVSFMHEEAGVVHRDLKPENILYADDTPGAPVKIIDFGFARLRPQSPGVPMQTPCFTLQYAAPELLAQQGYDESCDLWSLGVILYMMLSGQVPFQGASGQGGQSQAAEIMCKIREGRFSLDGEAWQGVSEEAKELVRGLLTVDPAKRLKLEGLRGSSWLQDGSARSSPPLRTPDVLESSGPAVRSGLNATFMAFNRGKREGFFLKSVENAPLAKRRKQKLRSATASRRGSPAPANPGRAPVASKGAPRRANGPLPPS
Protein kinase C delta type (Homo sapiens), sequence (Q05655 whole entry, looked up): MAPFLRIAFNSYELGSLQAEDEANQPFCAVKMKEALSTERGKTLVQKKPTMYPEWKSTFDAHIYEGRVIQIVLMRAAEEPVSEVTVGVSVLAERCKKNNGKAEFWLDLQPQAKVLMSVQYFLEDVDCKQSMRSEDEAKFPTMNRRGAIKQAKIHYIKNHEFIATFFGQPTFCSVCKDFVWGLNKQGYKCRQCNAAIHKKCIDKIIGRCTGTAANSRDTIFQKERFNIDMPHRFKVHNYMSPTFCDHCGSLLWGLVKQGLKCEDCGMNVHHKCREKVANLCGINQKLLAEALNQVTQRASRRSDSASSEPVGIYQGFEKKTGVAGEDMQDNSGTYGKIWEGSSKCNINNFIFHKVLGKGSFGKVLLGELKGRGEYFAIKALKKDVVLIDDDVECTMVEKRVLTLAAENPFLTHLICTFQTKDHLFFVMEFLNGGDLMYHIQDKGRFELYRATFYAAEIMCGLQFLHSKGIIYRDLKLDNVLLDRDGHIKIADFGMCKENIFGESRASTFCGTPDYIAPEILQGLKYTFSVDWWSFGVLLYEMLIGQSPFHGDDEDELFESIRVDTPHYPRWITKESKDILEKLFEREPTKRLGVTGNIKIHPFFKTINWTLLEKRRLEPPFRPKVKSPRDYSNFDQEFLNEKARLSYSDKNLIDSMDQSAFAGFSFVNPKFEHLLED
Serine/threonine-protein kinase Chk2 (Homo sapiens), sequence (O96017 whole entry): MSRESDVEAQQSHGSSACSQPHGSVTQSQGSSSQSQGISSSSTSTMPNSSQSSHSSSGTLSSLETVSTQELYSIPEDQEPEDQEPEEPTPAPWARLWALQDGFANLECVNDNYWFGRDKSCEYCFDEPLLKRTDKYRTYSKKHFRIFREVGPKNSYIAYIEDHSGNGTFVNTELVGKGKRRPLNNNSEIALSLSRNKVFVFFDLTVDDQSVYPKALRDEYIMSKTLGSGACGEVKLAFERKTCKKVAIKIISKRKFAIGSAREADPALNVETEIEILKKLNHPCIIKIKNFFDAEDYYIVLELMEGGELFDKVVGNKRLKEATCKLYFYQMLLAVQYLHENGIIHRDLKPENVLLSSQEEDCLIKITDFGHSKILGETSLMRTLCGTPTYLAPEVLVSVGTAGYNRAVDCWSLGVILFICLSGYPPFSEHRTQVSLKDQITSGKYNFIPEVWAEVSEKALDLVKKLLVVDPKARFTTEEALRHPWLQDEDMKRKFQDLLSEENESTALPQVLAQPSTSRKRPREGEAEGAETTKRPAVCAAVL
Mitogen-activated protein kinase 12, sequence (P53778 whole entry): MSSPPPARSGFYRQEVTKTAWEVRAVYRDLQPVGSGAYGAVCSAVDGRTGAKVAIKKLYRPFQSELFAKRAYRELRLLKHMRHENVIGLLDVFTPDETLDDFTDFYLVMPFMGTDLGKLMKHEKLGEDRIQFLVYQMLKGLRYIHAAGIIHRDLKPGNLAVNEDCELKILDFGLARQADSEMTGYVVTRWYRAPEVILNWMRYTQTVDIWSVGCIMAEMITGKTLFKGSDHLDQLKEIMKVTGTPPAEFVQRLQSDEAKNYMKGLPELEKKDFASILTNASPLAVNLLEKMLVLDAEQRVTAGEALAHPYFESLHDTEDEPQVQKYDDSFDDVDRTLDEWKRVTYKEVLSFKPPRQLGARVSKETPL

## O=C(Nc1nc2cccc(-c3ccc(CN4CCS(=O)(=O)CC4)cc3)n2n1)C1CC1 [FILGOTINIB]
[1]
  IC50: > 10 µM
Mus musculus [2]
  Activity: 372.4 ng/mL
[3]
  IC50: > 10 µM
Homo sapiens
  inhibition: -7%
[4]
  inhibition: 12%
[5]
  inhibition: -8%
[6]
  IC50: > 10 µM
[7]
  inhibition: 3%
Mus musculus [8]
  Activity: 33.6 ng/mL
[9]
  inhibition: 32%
Rattus norvegicus [10]
  Activity: Active
[11]
  inhibition: -2%
[12]
  inhibition: 7%
Mus musculus [13]
  Activity: inactive
[14]
  inhibition: 58%
Rattus norvegicus [15]
  Activity: Active
[16]
  IC50: > 10 µM
[17]
  Tmax: 0.5 h
[18]
  inhibition: -9%
[19]
  IC50: > 10 µM
[20]
  inhibition: 37%
[21]
  inhibition: 5%
[22]
  inhibition: -7%
[23]
  inhibition: -5%
[24]
  clearance: 48.3 mL/min/kg
[25]
  IC50: > 10 µM
[26]
  inhibition: -8%
[27]
  half-life: 2.5 h
[28]
  Tmax: 2.2 h
[29]
  inhibition: 17%
[30]
  inhibition: -10%
[31]
  inhibition: -8%
[32]
  inhibition: 1%
[33]
  inhibition: -6%
[34]
  inhibition: -2%
[35]
  inhibition: -10%
[36]
  half-life: 1.6 h
[37]
  IC50: > 10 µM
[38]
  inhibition: 6%
Mus musculus [39]
  Activity: 422.6 ng/mL
[40]
  inhibition: -1%
